Columns and labels:
[1] = tested on: medial aspect of a human forearm exposed to tobacco smoke; test: Testing of suppression of oxidation (ultraweak chemiluminescence of the skin); type: in vivo; conditions: 1.0 wt % solution applied on human forearm; tobacco smoke 90 seconds; measured for 30 minutes from 60 seconds after exposure
From the text: It is known that a phenomenon called “ultraweak chemiluminescence: CL” occurs on the skin of a living body including a human. This ultraweak chemiluminescence is known to occur in the radiation deactivation process of electrons from the excited state to the ground state.
For example, radicals such as singlet oxygen, excited carbonic acid, excited carbonyl, etc. are known to be this luminescent substance in a living body. Therefore, if this ultraweak chemiluminescence can be monitored, it is possible to adequately identify the oxidation reactions occurring on the human skin.
An 1.0 wt % aqueous solution of each of 1) thiotaurine (from Sogo Pharmaceutical Co., Ltd.), 2) hypotaurine (from Sogo Pharmaceutical Co., Ltd.), 3) glutathione, 4) tannin and 5) vitamin C derivative [L-ascorbic acid phosphate (magnesium)] was applied on the medial aspect of a human forearm. For each of these, a chemiluminescence detector (model OX-7 from Tohoku Electronic Industries Co., Ltd.) whose sample chamber had been modified for a human arm was used to carry out a 30 minute measurement to obtain the blank value of the ultraweak chemiluminescence for each of them. For the control, a solution of 1.0 wt % α-tocopherol was used.
In the same manner as in the aforementioned environmental stress suppression testing which used the corneum moisture content of the skin as the indicator, the medial aspect of a human forearm was brought close to the floating fine particles exposure apparatus shown in FIG. 1 to expose the medial aspect of the forearm, onto which the aforementioned ingredient(s) had been applied, to tobacco smoke for 90 seconds. Sixty seconds after exposure, the ultraweak chemiluminescence of the exposed part was measured for 30 minutes in the same manner as described above. […]

[2] = tested on: medial aspect of a human forearm exposed to tobacco smoke or exhaust gas; test: Testing of suppression of a reduction in the corneum moisture content; type: in vivo; conditions: 1.0 wt % aqueous solution applied on human forearm; exposure 10 minutes a day for three months; Corneometer
Experimental: The floating fine particles exposure apparatus shown in FIG. 1 was used to expose a testee's skin to tobacco (with […] of tar and 2.4 mg of nicotine) smoke or exhaust gas fine particles sampled from an exhaust outlet of an automobile for 10 minutes per day for three months consecutively by bringing the medial aspect of the testee's forearm near the discharge port 14 of the floating fine particles of this exposure apparatus 10 (Exposure apparatus 10 uses a three-mouthed flask 11. That is, one of the mouths of the three-mouthed flask is used as an air inlet 12, another is used as an inlet 13 for floating fine particles such as tobacco smoke, and the third mouth is used as a discharge port 14. Floating fine particles such as tobacco smoke flow in through inlet 13 of the floating fine particles and an air flow which flows in through air inlet 12 is used to discharge them through open discharge port 14 of the floating fine particles. An object which is brought close to this discharge port 14 can be exposed to the floating fine particles such as tobacco smoke. Changes in the corneum moisture content after consecutive exposure to tobacco smoke or exhaust gas fine particles for the aforementioned three months were analyzed by using a Corneometer™ (Courage and Khazaka, Germany). The corneum moisture content is one of the indicators of skin conditions and is known to be an indicator which allows determination of the amount of moisture in the corneum. That is, in the case of rough skin, the corneum moisture content is smaller. A higher value of the corneum moisture content indicates better skin conditions. […] For each of these, the blank value of the corneum moisture content was measured. For the controls, “the group with no drug applied” and “the non-exposure group”, which was not exposed to tobacco smoke or exhaust gas, were used. Using the tobacco smoke exposure apparatus shown in the aforementioned FIG. 1, the medial aspect of the human forearm onto which the aforementioned ingredients had been applied was exposed to tobacco smoke or exhaust gas for 10 minutes a day for three months and the corneum moisture content of that area was investigated.

| SMILES | reduction of the ultraweak chemiluminescence (oxidation reactions) on the skin [1] | suppression of the aggravation of skin conditions (reduction in the corneum moisture content) due to exposure to tobacco smoke or exhaust gas [2] |
| --- | --- | --- |
| N[C@@H](CCC(=O)N[C@@H](CS)C(=O)NCC(=O)O)C(=O)O [glutathione] | particularly significant | effectively prevented |
| NCCS(=O)(O)=S [thiotaurine] | particularly significant | effectively prevented |
| Cc1c(C)c2c(c(C)c1O)CC[C@@](C)(CCC[C@H](C)CCC[C@H](C)CCCC(C)C)O2 [α-tocopherol, reference compound] | could not effectively suppress | could only minimally suppress |
| NCCS(=O)O [hypotaurine] |  | effectively prevented |
| CC1=C(/C=C/C(C)=C/C=C/C(C)=C/C=C/C=C(C)/C=C/C=C(C)/C=C/C2=C(C)CCCC2(C)C)C(C)(C)CCC1 [β-carotene, reference compound] |  | could only minimally suppress |

Reference: patent US20030176358A1, “METHOD OF TREATING ENVIRONMENTAL STRESS” (priority 1997, published 2003)
